Experimental data published in US20100234442A1, “Compositions and Methods for Treatment and Prevention of Cardiovascular Disease” (Nucitec S.A. de C.V., priority 2009, published 2010).

Tested on: hypercholesterolemic patients
Test: 8-week, randomized, double-blind, active-controlled, parallel-group study of vascular markers in hypercholesterolemic patients
Assay type: in vivo, human
Protocol: This was a 8-week, randomized, double-blind, active-controlled, parallel-group study. All patients provided written, informed consent before the start of the study.
Patients, investigator staff, persons performing the assessment, and data analysts remained blinded to the identity of the treatment from the time of randomization until data base lock. Treatments were all identical in packaging, labeling, schedule of administration and appearance. Treatments were administered to patients via a single pill.
20 hypercholesterolemic patients, ≧45 years old, were compared in this study. Patients were classified into one of four groups, consisting of five patients in each group.
Group I was treated with a single daily dose of simvastatin alone (20 mg). Group II was treated with a single daily dose simvastatin (20 mg) and acetylsalicylic acid (75 mg). Group III was treated with a single daily dose of simvastatin (20 mg) and enalapril (10 mg). Group IV was treated with a single daily dose of simvastatin (20 mg), acetylsalicylic acid (75 mg), and enalapril (10 mg). All patients were treated for eight weeks.
The primary efficacy variable was the change from the baseline to the final assessment in vascular markers of LDL-Cholesterol (LDL-C), C Reactive Protein (CRP), Interleukin 6 (IL-6), Systolic Blood Pressure (SBP), and nitric oxide (NO).

[1] = change from baseline to final, eight weeks
[2] = final assessment after eight weeks, single daily oral dose

CCC(C)(C)C(=O)O[C@H]1C[C@@H](C)C=C2C=C[C@H](C)[C@H](CC[C@@H]3C[C@@H](O)CC(=O)O3)[C@H]21 [Simvastatin alone, simvastatin]
IL-6 Baseline (baseline, before treatment): 4.6 pg/mL | Nitric oxide Baseline (baseline, before treatment): 87 µmol/L | SBP Baseline (baseline, before treatment): 142 mmHg | LDL-C Baseline (baseline, before treatment, five patients per group): 159 mg/dL | CRP % Δ [1]: −18% | IL-6 % Δ [1]: −39% | LDL-C % Δ [1]: −38% | Nitric oxide % Δ [1]: −9% | SBP % Δ [1]: −0.8% | IL-6 Final [2]: 2.8 pg/mL | LDL-C Final [2]: 99 mg/dL | Nitric oxide Final [2]: 79 µmol/L | SBP Final [2]: 141 mmHg
